Results published in patent publication US20050004163A1, “3-(diarylmethylene)-8-azabicyclo[3.2.1]octane derivatives” (priority 2000, published 2005).
Read-outs that look alike come from different tables or passages of the source.

Legend:
[1] = biological target: T1, μ-opioid receptor (Rattus norvegicus, UniProt P33535); assay: Rat brain μ-opioid receptor binding assay ([3H]DAMGO)
T1 construct: the forebrains are homogenized in Tris buffer in a Teflon®-glass homogenizer; from tissue; host or cells: forebrain of male Wistar rats (particulate membrane preparation)
T1 sequence (P33535 whole entry): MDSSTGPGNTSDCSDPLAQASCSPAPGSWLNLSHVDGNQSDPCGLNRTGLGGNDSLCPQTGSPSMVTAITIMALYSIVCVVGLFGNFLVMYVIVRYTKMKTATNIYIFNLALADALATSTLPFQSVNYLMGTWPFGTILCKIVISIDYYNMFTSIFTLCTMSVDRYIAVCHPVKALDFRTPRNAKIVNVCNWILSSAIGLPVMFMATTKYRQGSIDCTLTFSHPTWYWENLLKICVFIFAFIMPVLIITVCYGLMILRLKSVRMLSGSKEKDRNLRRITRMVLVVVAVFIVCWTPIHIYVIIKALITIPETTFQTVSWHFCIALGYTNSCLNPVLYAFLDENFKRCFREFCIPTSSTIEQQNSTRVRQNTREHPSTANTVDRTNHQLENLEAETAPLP
Outline: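 Rat forebrain membranes from male Wistar rats, prepared in 50 mM Tris HCl pH 7.4, used for [3H]DAMGO binding. Filter-bound radioactivity measured by scintillation counting.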

[2] = test system: acetylcholine bromide-induced abdominal constriction response; assay: Mouse acetylcholine bromide-induced abdominal constriction assay; type: in vivo; details: dose of 150 μmole/Kg p.o., 5.5 mg/kg acetylcholine bromide i.p. 30 min later, ten min observation
Protocol: Mouse Acetylcholine Bromide-Induced Abdominal Constriction Assay
The mouse acetylcholine-induced abdominal constriction assay (as described by Collier et al. in Brit. J. Pharmacol. Chem. Ther., 1968, 32:295-310 with minor modifications) was used to assess analgesic potency of the compounds of formula (I). The test drugs or appropriate vehicles were administered orally (p.o.) and 30 min later the animal received an intraperitoneal (i.p.) injection of 5.5 mg/kg acetylcholine bromide (Matheson, Coleman and Bell, East Rutherford, N.J.). The mice were then placed in groups of three into glass bell jars and observed for a ten min observation period for the occurrence of an abdominal constriction response (defined as a wave of constriction and elongation passing caudally along the abdominal wall, accompanied by a twisting of the trunk and followed by extension of the hind limbs). For compounds of the present invention, the percent inhibition of this response to a nociceptive stimulus (equated to % analgesia) was calculated as follows: [formula]

CCNC(=O)c1ccc(C(=C2CC3CCC(C2)N3CC(=O)c2cc(C(=O)c3ccc(Cl)cc3)cn2C)c2ccccc2)cc1 [Cpd 88, 4-[(8{2-[4-(4-Chloro-benzoyl)-1-methyl-1H-pyrrol-2-yl]-2-oxo-ethyl}-8-azabicyclo[3.2.1]oct-3-ylidene)-phenyl-methyl]-N-ethyl-benzamide]
Ki ([1]; MOR binding Ki): 551 nM | melting point: 195 to 196 °C

CNC(=O)c1ccc(C=C2CC3CCC(C2)N3)cc1 [Cpd 103, 4-(8-Aza-bicyclo[3.2.1]oct-3-ylidenemethyl)-N-methyl-benzamide]
Ki ([1]; MOR binding Ki): 10600 nM | melting point: 164 to 166 °C

CCNC(=O)c1ccc(C=C2CC3CCC(C2)N3CCC(C(=O)N(C)C)(c2ccccc2)c2ccccc2)cc1 [Cpd 107, 4-[8-(3-Dimethylcarbamoyl-3,3-diphenyl-propyl)-8-aza-bicyclo[3.2.1]oct-3-ylidenemethyl]-N-ethyl-benzamide]
Ki ([1]; MOR binding Ki): 22.8 nM | melting point: 137 to 139 °C

CCNC(=O)c1ccc(C(=C2CC3CCC(C2)N3C=O)c2cccnc2)cc1 [Cpd 207, N-Ethyl-4-[(8-formyl-8-aza-bicyclo[3.2.1]oct-3-ylidene)-pyridin-3-yl-methyl]-benzamide]
Ki ([1]; 10 nM solutions of the compounds, read-out: MOR binding Ki): 10000 nM

CCNC(=O)c1ccc(C(=C2CC3CCC(C2)N3C(=O)c2cccs2)c2cccnc2)cc1 [Cpd 208, N-Ethyl-4-{pyridin-3-yl-[8-(thiophene-2-carbonyl)-8-aza-bicyclo[3.2.1]oct-3-ylidene]-methyl}-benzamide]
Ki ([1]; MOR binding Ki): 61.7 nM

CCNC(=O)c1ccc(C(=C2CC3CCC(C2)N3C(=O)c2ccccn2)c2cccnc2)cc1 [Cpd 213]
Ki ([1]; MOR binding Ki): 10000 nM

CCNC(=O)c1ccc(C(=C2CC3CCC(C2)N3C(=O)c2ccoc2)c2cccnc2)cc1 [Cpd 214]
Ki ([1]; MOR binding Ki): 580 nM

CCNC(=O)c1ccc(C(=C2C[C@H]3CC[C@@H](C2)N3C(=O)Cc2ccccc2)c2cccnc2)cc1 [Cpd 218, N-Ethyl-4-[((1S,5R)-8-phenylacetyl-8-aza-bicyclo[3.2.1]oct-3-ylidene)-pyridin-3-yl-methyl]-benzamide]
Ki ([1]; MOR binding Ki): 3.54 nM

CCN(CC)C(=O)c1ccc(C(=C2CC3CCC(C2)N3C)c2ccccc2)cc1.Cl [Example 1, N,N-Diethyl-4-[(8-methyl-8-azabicyclo[3.2.1]oct-3-ylidene)phenylmethyl]benzamide Hydrochloride [1:1]]
inhibition response (percent inhibition of abdominal constriction response, equated to % analgesia) [2]: 87%
